According to patent publication US20250302740A1, “A CONTROLLED RELEASE, ANTIMICROBIAL GEL FOR THE TREATMENT OF VAGINAL INFECTIONS” (priority 2022, published 2025):
Where two headings read alike, the source gives them in different places.

Tests used:
Candida albicans = assay: MIC and MFC against Candida albicans; assay type: cell-based
Method: (§1) A study was carried out to determine the effectiveness of thymol and carvacrol, singly or in combination, against bacterial vaginosis, trichomoniasis, candidiasis and lactobacilli relative to metronidazole, clotrimazole and clindamycin.
(§2) The results are shown in Table 2, wherein minimum inhibitory concentration (MIC) and minimum bactericidal (or fungicidal) concentration (MBC or MFC) are shown: […]

Gardnerella vaginalis = assay: MIC and MBC against Gardnerella vaginalis; assay type: cell-based
Method: as §1, §2

[1] = tested on: Lactobacillus acidophilus; assay: Inhibition of Lactobacillus acidophilus across thymol concentration range; assay type: cell-based; conditions: steady rate across the concentration range
From the text: Lactobacillus acidophilus, with a steady rate of <10% inhibition of Lactobacillus acidophilus across the concentration range, compared to inhibition range of 10% to 100% across the same concentration range.

[2] = tested on: Gardnerella vaginalis biofilm; conditions: cited from earlier work; for Mature biofilm inhibition: Gardnerella mature biofilm; for Native biofilm inhibition: Gardnerella native biofilm
G. vaginalis = conditions: cited from earlier work
C. albicans biofilms = conditions: cited from earlier work
Lactobacillus = assay: MIC and MBC against Lactobacillus; assay type: cell-based
Method: as §1, §2

[3] = tested on: Gardnerella vaginalis biofilm; conditions: cited from earlier work

For `Cc1ccc(C(C)C)c(O)c1` [Thymol], the MFC (Candida albicans; read-out: MFC) was 2500 µg/mL, the MIC (Candida albicans; read-out: MIC) was 125 µg/mL and the MBC (Gardnerella vaginalis; read-out: MBC) was 250 µg/mL. For the same molecule, the MIC (Gardnerella vaginalis; read-out: MIC) was 175 µg/mL, the “Inhibition of Lactobacillus acidophilus” value [1] was less than 10% and the Mature biofilm inhibition ([2]; 1/4 MIC) was 13.20%. For the same molecule, the Mature biofilm inhibition ([2]; 1 MIC) was 26.18%, the Native biofilm inhibition ([2]; 1/8 MIC) was 11.39% and the Native biofilm inhibition ([2]; 1 MIC) was 32.77%. The “Adhesion of G. vaginalis to human vaginal cells” value (G. vaginalis) was “interfere with the adhesion”, the “Destruction of mature biofilms” value (C. albicans biofilms; C. albicans mature biofilms) was “considerable effect” and the “Reduction in biofilms formed” value (C. albicans biofilms; C. albicans, 0.5xMIC, P<0.05) was “significant reduction”.

Molecule `CCC[C@@H]1C[C@@H](C(=O)N[C@@H]([C@H]2O[C@H](SC)[C@H](O)[C@@H](O)[C@H]2O)[C@H](C)Cl)N(C)C1` [Clindamycin, reference compound] has an MBC (Gardnerella vaginalis; read-out: MBC) of 8 µg/mL, an MIC (Gardnerella vaginalis; read-out: MIC) of 4 µg/mL and an MIC (Lactobacillus; read-out: MIC) of 1000 µg/mL.

`Clc1ccccc1C(c1ccccc1)(c1ccccc1)n1ccnc1` [Clotrimazole, reference compound] gave an MFC (Candida albicans; read-out: MFC) of no less than 2000 µg/mL and an MIC (Candida albicans; read-out: MIC) of 1000 µg/mL.

For `Cc1ncc([N+](=O)[O-])n1CCO` [Metronidazole, reference compound], the MIC (Gardnerella vaginalis; read-out: MIC) is given as 64 µg/mL, the MIC (Lactobacillus; read-out: MIC) is given as no less than 1000 µg/mL and the “Prevention of biofilm formation” value ([3]; Gardnerella vaginalis) is given as “only able to prevent biofilm formation”. For the same molecule, the “Inhibition or killing of mature biofilm” value ([3]; mature biofilm of Gardnerella vaginalis) was “unable to inhibit or kill”.

`Cc1ccc(C(C)C)cc1O` [Carvacrol] gave an MFC (Candida albicans) of 1250 µg/mL, an MIC (Candida albicans) of 625 µg/mL and an MBC (Gardnerella vaginalis) of 156 µg/mL. The MIC (Gardnerella vaginalis) was 156 µg/mL, the MBC (Lactobacillus) was 2440 µg/mL and the MIC (Lactobacillus) was 2440 µg/mL.
